Laboratory results from US5330897A, “Sialic acid binding lectin of protozoan origin” (South Alabama Medical Science Foundation, priority 1992, dated 1994).

Key:
[1] = system: T. mobilensis lectin; experiment: Inhibition of T. mobilensis lectin-mediated hemagglutination; assay type: biochemical, Tritrichomonas mobilensis; details: for Minimal Inhibitory Conc.: 2 units of hemagglutinin
[2] = system: T. foetus cell-free lysate hemagglutinin; experiment: Inhibition of HA activity of T. foetus cell-free lysate; assay type: biochemical, Tritrichomonas foetus
[3] = system: T. augusta cell-free lysate hemagglutinin; experiment: Inhibition of HA activity of T. augusta cell-free lysate; assay type: biochemical, Tritrichomonas augusta
[4] = system: T. mobilensis cell-free lysate hemagglutinin; experiment: Inhibition of HA activity of T. mobilensis cell-free lysate; assay type: biochemical, Tritrichomonas mobilensis
[5] = system: live T. mobilensis; experiment: Slide agglutination of live T. mobilensis by lectins; assay type: cell-based, Tritrichomonas mobilensis; details: carbohydrate 100 mM
Procedure: Agglutination of live T. mobilensis with lectins with various carbohydrate binding specificities was performed by a slide agglutination assay. Lectin Kit LK-2000 (Vector Laboratories) consisted of the following lectins: concanavalin A (ConA), wheat germ agglutinin (WGA), soybean agglutinin (SBA), gorse seed agglutinin (UEA-1), castor bean agglutinin type 1 (RCA-1), peanut agglutinin (PNA), and horse gram agglutinin (DBA). Limulus polyphemus lectin (LPA) was obtained from Sigma, and Limax flavus (LFA) agglutinin from EY Labs. Lectins and specific carbohydrates were dissolved in buffers recommended by the manufacturers. Twenty five μl of washed T. mobilensis (about 2×10^7 /ml) were placed onto a glass slide. An equal volume of lectin (200 μg/ml) or lectin with specific carbohydrate (final concentration, 100 mM) was added. After mixing for 2 to 3 min, the agglutination was evaluated under a microscope.

[6] = system: live cells of T. foetus; experiment: Inhibition of HA by live cells of T. foetus; assay type: cell-based, Tritrichomonas foetus
[7] = system: T. mobilensis hemolysis of erythrocytes; experiment: Whole organism hemolysis assay, inhibition; assay type: cell-based, Tritrichomonas mobilensis
From the text: Tritrichomonas mobilensis, an enteric parasite of squirrel monkeys, adheres readily to isolated monkey intestinal epithelial cells and agglutinates human erythrocytes in vitro. These activities are mediated by a sialic acid binding lectin. Hemagglutination by either parasites or purified lectin is inhibited by N-acetylneuraminic acid and anti-lectin monoclonal antibody (MAB), but not by 2,3-dehydro-2-desoxy-N-acetylneuraminic acid, a neuraminidase inhibitor. T. mobilensis hemolyzes erythrocytes in a modification of a previously published whole organism hemolysis assay. Hemolysis is inhibited by N-acetylneuraminic acid, 2,3-dehydro-2-desoxy-N-acetylneuraminic acid, anti-lectin MAB, T. mobilensis lectin and other sialic acid binding lectins, fetuin, and colominic acid, but not by asialofetuin, or leupeptin. Desialated erythrocytes are neither agglutinated nor hemolyzed.

## OC[C@H]1O[C@H](O[C@H]2[C@H](O)[C@@H](O)C(O)O[C@@H]2CO)[C@H](O)[C@@H](O)[C@@H]1O (mixture of isomers) [Maltose]
[1]; carbohydrates
  Minimal Inhibitory Conc.: > 100 mM

## CC(=O)NC1C(O)CC(OC2C(O)C(CO)OC(OC3C(CO)OC(O)C(O)C3O)C2O)(C(=O)O)OC1C(O)C(O)CO (stereo not shown) [3'-sialyllactose]
[1]; carbohydrates
  Minimal Inhibitory Conc.: 2.0 mM

## CC(=O)NC1C(O)CC(OCC2OC(OC3C(CO)OC(O)C(O)C3O)C(O)C(O)C2O)(C(=O)O)OC1C(O)C(O)CO (stereo not shown) [6'-sialyllactose]
[1]; carbohydrates
  Minimal Inhibitory Conc.: 1.0 mM

## OC1OC[C@@H](O)[C@@H](O)[C@@H]1O (stereo partly drawn) [D-arabinose]
[2]; carbohydrates, […]
  Conc. required to inhibit 2 HA units, T. foetus: > 200 µg/mL
[3]; carbohydrates, […]
  Conc. required to inhibit 2 HA units, T. augusta: > 200 µg/mL
[1]; carbohydrates
  Minimal Inhibitory Conc.: > 100 mM
[4]; carbohydrates, […]
  Conc. required to inhibit 2 HA units, T. mobilensis: > 200 µg/mL

## O=C(CO)[C@@H](O)[C@H](O)[C@H](O)CO [D-fructose]
[2]; carbohydrates, […]
  Conc. required to inhibit 2 HA units, T. foetus: > 200 µg/mL
[3]; carbohydrates, […]
  Conc. required to inhibit 2 HA units, T. augusta: > 200 µg/mL
[1]; carbohydrates
  Minimal Inhibitory Conc.: > 100 mM
[4]; carbohydrates, […]
  Conc. required to inhibit 2 HA units, T. mobilensis: > 200 µg/mL

## C[C@H]1OC(O)[C@H](O)[C@@H](O)[C@H]1O (stereo partly drawn) [D-fucose]
[2]; carbohydrates, […]
  Conc. required to inhibit 2 HA units, T. foetus: > 200 µg/mL
[3]; carbohydrates, […]
  Conc. required to inhibit 2 HA units, T. augusta: > 200 µg/mL
[5]
  Effect of specific carbohydrate on agglutinating activity of the appropriate lectin: abolished agglutinating activity
[1]; carbohydrates
  Minimal Inhibitory Conc.: > 100 mM
[4]; carbohydrates, […]
  Conc. required to inhibit 2 HA units, T. mobilensis: > 200 µg/mL

## OC[C@H]1OC(O)[C@H](O)[C@@H](O)[C@H]1O (stereo partly drawn) [D-galactose]
[2]; carbohydrates, […]
  Conc. required to inhibit 2 HA units, T. foetus: > 200 µg/mL
[3]; carbohydrates, […]
  Conc. required to inhibit 2 HA units, T. augusta: > 200 µg/mL
[5]
  Effect of specific carbohydrate on agglutinating activity of the appropriate lectin: abolished agglutinating activity
[1]; carbohydrates
  Minimal Inhibitory Conc.: > 100 mM
[4]; carbohydrates, […]
  Conc. required to inhibit 2 HA units, T. mobilensis: > 200 µg/mL

## O=C(O)[C@H]1OC(O)[C@H](O)[C@@H](O)[C@H]1O (stereo partly drawn) [D-galacturonic acid]
[1]; carbohydrates
  Minimal Inhibitory Conc.: > 100 mM

## OC[C@H]1OC(O)[C@H](O)[C@@H](O)[C@@H]1O (stereo partly drawn) [D-glucose]
[2]; carbohydrates, […]
  Conc. required to inhibit 2 HA units, T. foetus: > 200 µg/mL
[3]; carbohydrates, […]
  Conc. required to inhibit 2 HA units, T. augusta: > 200 µg/mL
[1]; carbohydrates
  Minimal Inhibitory Conc.: > 100 mM
[4]; carbohydrates, […]
  Conc. required to inhibit 2 HA units, T. mobilensis: > 200 µg/mL

## OC[C@H]1OC(O)[C@@H](O)[C@@H](O)[C@@H]1O (stereo partly drawn) [D-mannose]
[2]; carbohydrates, […]
  Conc. required to inhibit 2 HA units, T. foetus: > 200 µg/mL
[3]; carbohydrates, […]
  Conc. required to inhibit 2 HA units, T. augusta: > 200 µg/mL
[5]
  Effect of specific carbohydrate on agglutinating activity of the appropriate lectin: abolished agglutinating activity
[1]; carbohydrates
  Minimal Inhibitory Conc.: > 100 mM
[4]; carbohydrates, […]
  Conc. required to inhibit 2 HA units, T. mobilensis: > 200 µg/mL

## OC1OC[C@@H](O)[C@H](O)[C@H]1O (stereo partly drawn) [D-xylose]
[2]; carbohydrates, […]
  Conc. required to inhibit 2 HA units, T. foetus: > 200 µg/mL
[3]; carbohydrates, […]
  Conc. required to inhibit 2 HA units, T. augusta: > 200 µg/mL
[1]; carbohydrates
  Minimal Inhibitory Conc.: > 100 mM
[4]; carbohydrates, […]
  Conc. required to inhibit 2 HA units, T. mobilensis: > 200 µg/mL

## O=P(O)(O)OC[C@H]1OC(O)[C@@H](O)[C@@H](O)[C@@H]1O (stereo partly shown) [Mannose-6-phosphate]
[1]; carbohydrates
  Minimal Inhibitory Conc.: > 100 mM

## CC(=O)N[C@H]1[C@H](O[C@H]2[C@H](O)[C@@H](NC(C)=O)C(O)O[C@@H]2CO)O[C@H](CO)[C@@H](O)[C@@H]1O (stereo partly shown) [N,N-diacetyl chitobiose]
[1]; carbohydrates
  Minimal Inhibitory Conc.: > 100 mM

## CC(=O)N[C@H]1[C@@H](O)[C@H](O)[C@@H](CO)O[C@H]1O [N-acetyl-β-D-mannosamine]
[1]; carbohydrates
  Minimal Inhibitory Conc.: > 100 mM

## CC(=O)N[C@H]1C(O)O[C@H](CO)[C@H](O)[C@@H]1O (stereo partly shown) [N-acetylgalactosamine]
[2]; carbohydrates, […]
  Conc. required to inhibit 2 HA units, T. foetus: > 200 µg/mL
[3]; carbohydrates, […]
  Conc. required to inhibit 2 HA units, T. augusta: > 200 µg/mL
[5]
  Effect of specific carbohydrate on agglutinating activity of the appropriate lectin: abolished agglutinating activity
[1]; carbohydrates
  Minimal Inhibitory Conc.: > 100 mM
[4]; carbohydrates, […]
  Conc. required to inhibit 2 HA units, T. mobilensis: > 200 µg/mL

## CC(=O)N[C@H]1C(O)O[C@H](CO)[C@@H](O)[C@@H]1O (stereo partly shown) [N-acetylglucosamine]
[2]; carbohydrates, […]
  Conc. required to inhibit 2 HA units, T. foetus: > 200 µg/mL
[3]; carbohydrates, […]
  Conc. required to inhibit 2 HA units, T. augusta: > 200 µg/mL
[5]
  Effect of specific carbohydrate on agglutinating activity of the appropriate lectin: abolished agglutinating activity
[1]; carbohydrates
  Minimal Inhibitory Conc.: > 100 mM
[4]; carbohydrates, […]
  Conc. required to inhibit 2 HA units, T. mobilensis: > 200 µg/mL

## CC(=O)N[C@H]1C(O)O[C@H](CO)[C@@H](O)[C@@H]1O[C@H](C)C(=O)O (stereo partly shown) [N-acetylmuramic acid]
[1]; carbohydrates
  Minimal Inhibitory Conc.: > 100 mM

## COC1(C(=O)O)CC(O)C(NC(C)=O)C(C(O)C(O)CO)O1 (stereo not drawn) [N-acetylneruaminic acid β-methyl glycoside]
[1]; carbohydrates
  Minimal Inhibitory Conc.: > 100 mM

## COC(=O)C1(OC)CC(O)C(NC(C)=O)C(C(O)C(O)CO)O1 (stereo not drawn) [N-acetylneuraminic acid methyl ester, β-methyl glycoside]
[1]; carbohydrates
  Minimal Inhibitory Conc.: > 100 mM

## OC[C@H]1O[C@@](CO)(O[C@H]2O[C@H](CO)[C@@H](O)[C@H](O)[C@H]2O)[C@@H](O)[C@@H]1O [Sucrose]
[2]; carbohydrates, […]
  Conc. required to inhibit 2 HA units, T. foetus: > 200 µg/mL
[3]; carbohydrates, […]
  Conc. required to inhibit 2 HA units, T. augusta: > 200 µg/mL
[1]; carbohydrates
  Minimal Inhibitory Conc.: > 100 mM
[4]; carbohydrates, […]
  Conc. required to inhibit 2 HA units, T. mobilensis: > 200 µg/mL

## O=P(O)(O)OC1O[C@H](CO)[C@@H](O)[C@H](O)[C@@H]1O (stereo partly shown) [mannose-1-phosphate]
[1]; carbohydrates
  Minimal Inhibitory Conc.: > 100 mM

## Avidin: glycoprotein or protein tested as inhibitor
[1]; glycoproteins or proteins
  Minimal Inhibitory Conc.: > 1000 µg/mL

## Bovine Albumin: glycoprotein or protein tested as inhibitor
[1]; glycoproteins or proteins
  Minimal Inhibitory Conc.: > 1000 µg/mL

## Bovine submaxillary mucin
[2]; sialoglycoproteins
  Conc. required to inhibit 2 HA units, T. foetus: 60 µg/mL
[3]; sialoglycoproteins
  Conc. required to inhibit 2 HA units, T. augusta: 40 µg/mL
[1]; glycoproteins or proteins
  Minimal Inhibitory Conc.: 0.65 µg/mL
[6]
  Conc. required to Inhibit 2 HA Units: 125 µg/mL
[4]; sialoglycoproteins
  Conc. required to inhibit 2 HA units, T. mobilensis: 60 µg/mL

## Egg Albumin: glycoprotein or protein tested as inhibitor
[1]; glycoproteins or proteins
  Minimal Inhibitory Conc.: > 1000 µg/mL

## Fibronectin
[1]; glycoproteins or proteins
  Minimal Inhibitory Conc.: > 333 µg/mL

## GD1A
[1]; at mg/ml concentrations
  Inhibition of hemagglutination by gangliosides: did not inhibit

## Laminin
[1]; glycoproteins or proteins
  Minimal Inhibitory Conc.: 6.8 µg/mL

## Lysozyme: glycoprotein or protein tested as inhibitor
[1]; glycoproteins or proteins
  Minimal Inhibitory Conc.: > 1000 µg/mL

## Orosomucoid: sialoconjugate (sialoglycoprotein)
[2]; sialoglycoproteins
  Conc. required to inhibit 2 HA units, T. foetus: 150 µg/mL
[3]; sialoglycoproteins
  Conc. required to inhibit 2 HA units, T. augusta: 150 µg/mL
[6]
  Conc. required to Inhibit 2 HA Units: 500 µg/mL
[4]; sialoglycoproteins
  Conc. required to inhibit 2 HA units, T. mobilensis: 150 µg/mL

## colominic acid
[7]
  Inhibition of hemolysis: inhibited

## glucuronic acid
[1]; carbohydrates
  Minimal Inhibitory Conc.: > 100 mM

B1: Asialofetuin: asialo- analog of fetuin (protein, UniProt P12763 19-359, looked up)
Alpha-2-HS-glycoprotein: IPLDPVAGYKEPACDDPDTEQAALAAVDYINKHLPRGYKHTLNQIDSVKVWPRRPTGEVYDIEIDTLETTCHVLDPTPLANCSVRQQTQHAVEGDCDIHVLKQDGQFSVLFTKCDSSPDSAEDVRKLCPDCPLLAPLNDSRVVHAVEVALATFNAESNGSYLQLVEISRAQFVPLPVSVSVEFAVAATDCIAKEVVDPTKCNLLAEKQYGFCKGSVIQKALGGEDVRVTCTLFQTQPVIPQPQPDGAEAEAPSAVPDAAGPTPSAAGPPVASVVVGPSVVAVPLPLHRAHYDLRHTFSGVASVESSSGEAFHVGKTPIVGQPSIPGGPVRLCPGRIRYFKI
modifications: desialylated
notes: asialo- analog of fetuin
[1]; glycoproteins or proteins
  Minimal Inhibitory Conc.: 26.0 µg/mL

B2: Glycophorin: a major sialoglycoprotein of erythrocyte membranes (protein, UniProt P02724 20-150, looked up)
Glycophorin-A: LSTTEVAMHTSTSSSVTKSYISSQTNDTHKRDTYAATPRAHEVSEISVRTVYPPEEETGERVQLAHHFSEPEITLIIFGVMAGVIGTILLISYGIRRLIKKSPSDVKPLPSPDTDVPLSSVEIENPETSDQ
[2]; sialoglycoproteins
  Conc. required to inhibit 2 HA units, T. foetus: 10 µg/mL
[3]; sialoglycoproteins
  Conc. required to inhibit 2 HA units, T. augusta: 10 µg/mL
[1]; glycoproteins or proteins
  Minimal Inhibitory Conc.: 0.42 µg/mL
[6]
  Conc. required to Inhibit 2 HA Units: 10 µg/mL
[4]; sialoglycoproteins
  Conc. required to inhibit 2 HA units, T. mobilensis: 10 µg/mL

B3: Asialoglycophorin: glycophorin lacking the sialic acid (protein, UniProt P02724 20-150, looked up)
Glycophorin-A: B2 Glycophorin-A
modifications: desialylated
notes: glycophorin lacking the sialic acid
[2]; sialoglycoproteins
  Conc. required to inhibit 2 HA units, T. foetus: 500 µg/mL
[3]; sialoglycoproteins
  Conc. required to inhibit 2 HA units, T. augusta: 500 µg/mL
[1]; glycoproteins or proteins
  Minimal Inhibitory Conc.: 83.3 µg/mL
[6]
  Conc. required to Inhibit 2 HA Units: 500 µg/mL
[4]; sialoglycoproteins
  Conc. required to inhibit 2 HA units, T. mobilensis: 500 µg/mL
